How the values were obtained:
[1] = Stability studies: total moxidectin and triclabendazole levels after storage; assay type: physicochemical; conditions: in Composition F, 25° C. or 40° C.; for Stability of the active during storage (in words): entire 6 month storage period
Procedure: Stability studies were conducted to ensure that a composition according to the present invention was stable. Composition F of Example 3 was prepared according to the process described in Example 1 and stored at either ambient (25° C.) or 40° C. for a total period of 6 months. At the conclusion of each storage period shown in Table V below, samples were tested for total moxidectin and triclabendazole levels.

[2] = Triclabendazole solubility in various lactone solvents; assay type: physicochemical
Procedure: Still further embodiments of anthelmintic compositions representative of the present invention are prepared according to the process described in Example 1 above, except that lactone solvents other than γ-hexalactone are employed. In particular, the compositions are prepared with one of the following lactone solvents: butyrolactone, δ-hexalactone, γ-dodecalactone, δ-nonalactone, δ-decalactone, γ-decalactone, and δ-dodecalactone.

Row | Structure (SMILES) | Stability of the active during storage (in words) [1] | Physical state of the active during storage (in words) ([1]; up to 6 months) | Solvency in lactone solvents (in words) ([2]; lactone solvents of Table VIII and similar lactones and combinations) | Triclabendazole Solubility (% w/w) ([2]; solvent γ-butyrolactone) | Triclabendazole Solubility (% w/w) ([2]; solvent γ-decalactone) | Triclabendazole Solubility (% w/w) ([2]; solvent γ-dodecalactone) | Triclabendazole Solubility (% w/w) ([2]; solvent γ-hexalactone) | Triclabendazole Solubility (% w/w) ([2]; solvent γ-nonalactone) | Triclabendazole Solubility (% w/w) ([2]; solvent δ-decalactone) | Triclabendazole Solubility (% w/w) ([2]; solvent δ-dodecalactone)
1 | CO/N=C1\C[C@]2(C[C@@H]3C[C@@H](C/C=C(\C)C[C@@H](C)/C=C/C=C4\CO[C@@H]5[C@H](O)C(C)=C[C@@H](C(=O)O3)[C@]45O)O2)O[C@H](/C(C)=C/C(C)C)[C@H]1C [Moxidectin] | remained stable and active |  |  |  |  |  |  |  |  | 
2 | CSc1nc2cc(Cl)c(Oc3cccc(Cl)c3Cl)cc2[nH]1 [Triclabendazole, 5-chloro-6(2,3-dichlorophenoxy)-2-methylthio-1H-benzimidazole] | remained stable and active | remained in solution | surprisingly good solvency | >18.0 % w/w | 15.2 % w/w | 11.8 % w/w | 16.8 % w/w | 16.7 % w/w | 28.1 % w/w | 21.5 % w/w
